Assay results taken from article PMC11232401, “Characterization of antimalarial activity of artemisinin-based hybrid drugs” (Antimicrobial Agents and Chemotherapy, 2024).

Assays:
P. falciparum = assay: Parasite growth inhibition (cell potency); format: cell-based; details: Plasmodium falciparum; strain and exposure not stated at the place
[1] = Quantification of hybrid 1 in uRBC-derived supernatants by HPLC and fluorescence; format: in vitro ADME, human
Experimental: Each well of 96-well plates was filled with 125 µL drug (1000 nM) and 125 µL uninfected red blood cells (uRBC), which were mixed to obtain a final drug concentration of 500 nM and 2.5% or 1.0% hematocrit. The plates were incubated at 37°C in the standard gas mixture. After each time point (10 min, 6 h, and 24 h), supernatants were carefully harvested and stored at −80°C until use. Untreated uRBC incubated at the same times were used as negative controls, and DHA and AQ were employed as standard drugs. Next, supernatants were diluted in a complete medium in six different dilutions and were aliquoted in new plates. The antimalarial activity of these supernatants and freshly dissolved drugs was determined in an asynchronous parasite culture of P. falciparum (3D7, D10, and W2 strains) for 72 h using the same method described above, and parasite viability was assessed by the pLDH ([38]) and SYBR Green I ([41]) methods. […] Decay in drug concentration was estimated by using the normalized slope values calculated from linear regression fits using the slope values of a standard curve as reference. […]
To test the association between the antimalarial activity of hybrid 1 supernatants and chemical stability, the concentration of hybrid 1 in these supernatants was quantified by high-performance liquid chromatography (HPLC) and fluorescence in a microplate reader. The concentration of hybrid 1 remained constant under incubation with PBS over the analyzed time (Fig. 3E; Fig. S1). […] Moreover, we defined the slopes calculated from linear regression fits to accurately reflect the effective decay in drug concentration because peroxides could covalently bind to proteins present in the supernatant. […]
Figure S1: Quantification of hybrid LH70 (1) by fluorescence and HPLC in the uRBC-derived supernatants. […] The drug was quantified in the supernatant of the cell culture after the second and third steps of medium replacement and washing out. […] RFU = relative fluorescence units.

Structure (SMILES) | IC50 (P. falciparum) [nM] | concentration of hybrid 1 in supernatant at 24 h ([1]; uRBC hematocrit 2.5%, start 500 nM, HPLC) [nM] | Maximum rate of reduction of drug concentration between 10 min and 24 h, HPLC ([1]; uRBC supernatants, slopes of linear regression fits, HPLC) [%] | Maximum rate of reduction of drug concentration between 10 min and 24 h, fluorescence microplate reader ([1]; uRBC supernatants, slopes of linear regression fits, fluorescence) [%]
C[C@H]1[C@@H](O)O[C@@H]2O[C@@]3(C)CC[C@H]4[C@H](C)CC[C@@H]1[C@@]24OO3 [DHA, dihydroartemisinin, reference compound] | 5 |  |  | 
COCCOCCOCCOCCn1c(-c2ccc(-n3cc(-c4ccc(OC5OC6OC7(C)CCC8C(C)CCC(C5C)C68OO7)cc4)nn3)cc2)nc2ccccc21 (stereo not shown) [Hybrid 1] |  | 256 | 56.4 | 65.4
